# Assay results reported in ChEMBL document CHEMBL2440076, “New triarylpyrazoles as broad-spectrum anticancer agents: design, synthesis, and biological evaluation” (Eur J Med Chem, 2013).
# How the values were obtained:
# [1] = test system: NCI-H460; assay: Growth inhibition of human NCI-H460 cells assessed as cell growth at 5X10'-8 M after 48 hrs by sulforhodamine B assay; format: functional; conditions: NCI-H460, 48 h, read-out: Activity
# [2] = test system: DU-145; assay: Growth inhibition of human DU145 cells assessed as cell growth at 5X10'-6 M after 48 hrs by sulforhodamine B assay; format: functional; conditions: DU-145, 48 h, read-out: Activity
smiles,measurement,setting,value
COc1cc(-c2nn(-c3cccc(NC(=O)c4cccc(C(F)(F)F)c4)c3)cc2-c2ccncc2)ccc1Cl,growth at 0.05 µM,[1],100%
same,growth at 5 µM,[2],15%
